Test results: US20230085307A1, “PYRIDAZINONE COMPOUND AND HERBICIDE” (NISSAN CHEMICAL CORPORATION, priority 2019, published 2023)

Tests used:
redroot pigweed [1] = experiment: Test Example 5: herbicidal effect by foliage application, plastic box (Table 20, symbol N); type: in vivo, redroot pigweed (Amaranthus retroflexus); conditions: foliage application, AAH 320 g/ha, evaluated three weeks after application
In short: (§1)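 Post-emergence foliar test in sterilized diluvial soil. Compound applied as water-diluted emulsion at a predetermined rate to 14-day-old plants; evaluation at three weeks.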

windgrass = experiment: Test Example 5: herbicidal effect by foliage application, plastic box (Table 20, symbol L); type: in vivo, windgrass (Apera spica-venti); conditions: foliage application, AAH 320 g/ha, evaluated three weeks after application
In short: as §1

redroot pigweed [2] = experiment: Test Example 4: herbicidal effect by soil treatment (Table 19, symbol N); type: in vivo, redroot pigweed (Amaranthus retroflexus); conditions: amount of applied herbicide 320 g/ha
In short: (§2)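 Emulsion of test compound, water-diluted to predetermined amount, sprayed on soil after sowing (seed depth ~1.5 cm, sterilized diluvial soil). Greenhouse, 25–30° C. Effect graded at three weeks post-spray.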

late watergrass = experiment: Test Example 2: herbicidal activity, application during weed generation under submerged conditions (Table 17, symbol A); type: in vivo, late watergrass (Echinochloa oryzicola); conditions: AAH 320 g/ha; application during weed generation, submerged conditions
In short: (§3)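 Wagner pot, alluvial soil, 4 cm flood; mixed sowing of all species; greenhouse 25° C.–30° C. Emulsifiable formulation, water-diluted to predetermined dose, applied to paddy water at 1–2 leaf stage. Effect rated at 3 wk using the earlier test's scoring criteria.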

wild oat [3] = experiment: Test Example 5: herbicidal effect by foliage application, plastic box (Table 20, symbol I); type: in vivo, wild oat (Avena fatua); conditions: foliage application, AAH 320 g/ha, evaluated three weeks after application
In short: as §1

wild oat [4] = experiment: Test Example 4: herbicidal effect by soil treatment (Table 19, symbol I); type: in vivo, wild oat (Avena fatua); conditions: amount of applied herbicide 320 g/ha
In short: as §2

rice flat sedge = experiment: Test Example 3: herbicidal effect by foliage application, Wagner pot (Table 18, symbol E); type: in vivo, rice flat sedge (Cyperus iria); conditions: amount of applied herbicide 320 g/ha
In short: (§4)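 Plants were sown in alluvial soil held under 0.1–0.5 cm standing water and grown 14 days in a greenhouse at 25–30 °C. An emulsifiable formulation, water-diluted to the set dose, was then sprayed onto the foliage, and effects were scored three weeks later using previously defined criteria.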

Italian ryegrass [5] = experiment: Test Example 4: herbicidal effect by soil treatment (Table 19, symbol K); type: in vivo, Italian ryegrass (Lolium multiflorum); conditions: amount of applied herbicide 320 g/ha
In short: as §2

chickweed [6] = experiment: Test Example 4: herbicidal effect by soil treatment (Table 19, symbol P); type: in vivo, common chickweed (Stellaria media); conditions: amount of applied herbicide 320 g/ha
In short: as §2

velvetleaf [7] = experiment: Test Example 5: herbicidal effect by foliage application, plastic box (Table 20, symbol M); type: in vivo, velvetleaf (Abutilon theophrasti); conditions: foliage application, AAH 320 g/ha, evaluated three weeks after application
In short: as §1

green foxtail [8] = experiment: Test Example 4: herbicidal effect by soil treatment (Table 19, symbol G); type: in vivo, green foxtail (Setaria viridis); conditions: amount of applied herbicide 320 g/ha
In short: as §2

barnyard grass [9] = experiment: Test Example 4: herbicidal effect by soil treatment (Table 19, symbol H); type: in vivo, barnyard grass (Echinochloa crus-galli); conditions: amount of applied herbicide 320 g/ha
In short: as §2

green foxtail [10] = experiment: Test Example 5: herbicidal effect by foliage application, plastic box (Table 20, symbol G); type: in vivo, green foxtail (Setaria viridis); conditions: foliage application, AAH 320 g/ha, evaluated three weeks after application
In short: as §1

chickweed [11] = experiment: Test Example 5: herbicidal effect by foliage application, plastic box (Table 20, symbol P); type: in vivo, common chickweed (Stellaria media); conditions: foliage application, AAH 320 g/ha, evaluated three weeks after application
In short: as §1

southern crabgrass = experiment: Test Example 4: herbicidal effect by soil treatment (Table 19, symbol F); type: in vivo, southern crabgrass (Digitaria ciliaris); conditions: amount of applied herbicide 320 g/ha
In short: as §2

Japanese bulrush = experiment: Test Example 2: herbicidal activity, application during weed generation under submerged conditions (Table 17, symbol B); type: in vivo, Japanese bulrush (Schoenoplectus juncoides); conditions: AAH 320 g/ha; application during weed generation, submerged conditions
In short: as §3

blackgrass = experiment: Test Example 5: herbicidal effect by foliage application, plastic box (Table 20, symbol J); type: in vivo, blackgrass (Alopecurus myosuroides); conditions: foliage application, AAH 320 g/ha, evaluated three weeks after application
In short: as §1

velvetleaf [12] = experiment: Test Example 4: herbicidal effect by soil treatment (Table 19, symbol M); type: in vivo, velvetleaf (Abutilon theophrasti); conditions: amount of applied herbicide 320 g/ha
In short: as §2

lambsquarters = experiment: Test Example 4: herbicidal effect by soil treatment (Table 19, symbol O); type: in vivo, lambsquarters (Chenopodium album); conditions: amount of applied herbicide 320 g/ha
In short: as §2

barnyard grass [13] = experiment: Test Example 3: herbicidal effect by foliage application, Wagner pot (Table 18, symbol H); type: in vivo, barnyard grass (Echinochloa crus-galli); conditions: amount of applied herbicide 320 g/ha
In short: as §4

persian speedwell = experiment: Test Example 5: herbicidal effect by foliage application, plastic box (Table 20, symbol R); type: in vivo, Persian speedwell (Veronica persica); conditions: foliage application, AAH 320 g/ha, evaluated three weeks after application
In short: as §1

Italian ryegrass [14] = experiment: Test Example 5: herbicidal effect by foliage application, plastic box (Table 20, symbol K); type: in vivo, Italian ryegrass (Lolium multiflorum); conditions: foliage application, AAH 320 g/ha, evaluated three weeks after application
In short: as §1

SMILES	N: redroot pigweed, herbicidal effect (criteria 0-5) (redroot pigweed [1])	L: windgrass, herbicidal effect (criteria 0-5) (windgrass)	herbicidal effect on N: redroot pigweed (redroot pigweed [2])	herbicidal effect rating, A: late watergrass (late watergrass)	I: wild oat, herbicidal effect (criteria 0-5) (wild oat [3])	herbicidal effect on I: wild oat (wild oat [4])	herbicidal effect on E: rice flat sedge (rice flat sedge)	herbicidal effect on K: Italian ryegrass (Italian ryegrass [5])	herbicidal effect on P: chickweed (chickweed [6])	M: velvetleaf, herbicidal effect (criteria 0-5) (velvetleaf [7])	herbicidal effect on G: green foxtail (green foxtail [8])	herbicidal effect on H: barnyard grass (barnyard grass [9])	G: green foxtail, herbicidal effect (criteria 0-5) (green foxtail [10])	P: chickweed, herbicidal effect (criteria 0-5) (chickweed [11])	herbicidal effect on F: southern crabgrass (southern crabgrass)	herbicidal effect rating, B: Japanese bulrush (Japanese bulrush)	J: blackgrass, herbicidal effect (criteria 0-5) (blackgrass)	herbicidal effect on M: velvetleaf (velvetleaf [12])	herbicidal effect on O: lambsquarters (lambsquarters)	herbicidal effect on H: barnyard grass (barnyard grass [13])	also measured
CCCC(=O)Oc1c(C)nn(C)c(=O)c1-c1c(-c2ccc(SC(C)C)cc2)sc2ccc(F)cc12 [2-253]	5 (Herbicidal rate of 90% or more (almost completely withered))	3 (Herbicidal rate of 40% or more and less than 70%)	5 (Herbicidal rate of 90% or more (almost completely withered))	3 (Herbicidal rate of 40% or more and less than 70%)	2 (Herbicidal rate of 20% or more and less than 40%)	0 (Herbicidal rate of 5% or less (almost no effect))	4 (Herbicidal rate of 70% or more and less than 90%)	0 (Herbicidal rate of 5% or less (almost no effect))	3 (Herbicidal rate of 40% or more and less than 70%)	5 (Herbicidal rate of 90% or more (almost completely withered))	0 (Herbicidal rate of 5% or less (almost no effect))	1 (Herbicidal rate of 5% or more and less than 20%)	5 (Herbicidal rate of 90% or more (almost completely withered))	5 (Herbicidal rate of 90% or more (almost completely withered))	0 (Herbicidal rate of 5% or less (almost no effect))	3 (Herbicidal rate of 40% or more and less than 70%)	4 (Herbicidal rate of 70% or more and less than 90%)	1 (Herbicidal rate of 5% or more and less than 20%)	4 (Herbicidal rate of 70% or more and less than 90%)	5 (Herbicidal rate of 90% or more (almost completely withered))	R: persian speedwell, herbicidal effect (criteria 0-5) (persian speedwell): 5 (Herbicidal rate of 90% or more (almost completely withered)); K: Italian ryegrass, herbicidal effect (criteria 0-5) (Italian ryegrass [14]): 3 (Herbicidal rate of 40% or more and less than 70%)
CCCC(=O)Oc1c(C)nn(C)c(=O)c1-c1c(-c2ccc(SC3CC3)cc2)sc2ccc(F)cc12 [2-255]	5 (Herbicidal rate of 90% or more (almost completely withered))	5 (Herbicidal rate of 90% or more (almost completely withered))	4 (Herbicidal rate of 70% or more and less than 90%)	4 (Herbicidal rate of 70% or more and less than 90%)	5 (Herbicidal rate of 90% or more (almost completely withered))	0 (Herbicidal rate of 5% or less (almost no effect))	5 (Herbicidal rate of 90% or more (almost completely withered))	3 (Herbicidal rate of 40% or more and less than 70%)	4 (Herbicidal rate of 70% or more and less than 90%)	5 (Herbicidal rate of 90% or more (almost completely withered))	1 (Herbicidal rate of 5% or more and less than 20%)	0 (Herbicidal rate of 5% or less (almost no effect))	5 (Herbicidal rate of 90% or more (almost completely withered))	5 (Herbicidal rate of 90% or more (almost completely withered))	0 (Herbicidal rate of 5% or less (almost no effect))	3 (Herbicidal rate of 40% or more and less than 70%)	5 (Herbicidal rate of 90% or more (almost completely withered))	3 (Herbicidal rate of 40% or more and less than 70%)	3 (Herbicidal rate of 40% or more and less than 70%)	5 (Herbicidal rate of 90% or more (almost completely withered))	R: persian speedwell, herbicidal effect (criteria 0-5) (persian speedwell): 5 (Herbicidal rate of 90% or more (almost completely withered)); K: Italian ryegrass, herbicidal effect (criteria 0-5) (Italian ryegrass [14]): 5 (Herbicidal rate of 90% or more (almost completely withered))
Cc1nn(C)c(=O)c(-c2c(-c3ccc(OC(F)F)cc3)sc3ccc(F)cc23)c1OC(=O)C1CCCC1 [2-280]	5 (Herbicidal rate of 90% or more (almost completely withered))	3 (Herbicidal rate of 40% or more and less than 70%)	5 (Herbicidal rate of 90% or more (almost completely withered))	4 (Herbicidal rate of 70% or more and less than 90%)	3 (Herbicidal rate of 40% or more and less than 70%)	0 (Herbicidal rate of 5% or less (almost no effect))	4 (Herbicidal rate of 70% or more and less than 90%)	5 (Herbicidal rate of 90% or more (almost completely withered))	1 (Herbicidal rate of 5% or more and less than 20%)	5 (Herbicidal rate of 90% or more (almost completely withered))	2 (Herbicidal rate of 20% or more and less than 40%)	3 (Herbicidal rate of 40% or more and less than 70%)	4 (Herbicidal rate of 70% or more and less than 90%)	5 (Herbicidal rate of 90% or more (almost completely withered))	0 (Herbicidal rate of 5% or less (almost no effect))	3 (Herbicidal rate of 40% or more and less than 70%)	5 (Herbicidal rate of 90% or more (almost completely withered))	3 (Herbicidal rate of 40% or more and less than 70%)	5 (Herbicidal rate of 90% or more (almost completely withered))	5 (Herbicidal rate of 90% or more (almost completely withered))	R: persian speedwell, herbicidal effect (criteria 0-5) (persian speedwell): 5 (Herbicidal rate of 90% or more (almost completely withered)); K: Italian ryegrass, herbicidal effect (criteria 0-5) (Italian ryegrass [14]): 5 (Herbicidal rate of 90% or more (almost completely withered))
